Conditions: for surface tension liquid-gas: Ring tensiometer; for mass density: 101.33 kPa, Liquid, Pycnometric method

CCn1cc[n+](C)c1.O=S(=O)([N-]S(=O)(=O)C(F)(F)F)C(F)(F)F
Conditions | surface tension liquid-gas [mN/m]
298.7 K | 41.62
302.05 K | 41.38
305.74 K | 41.19
309.16 K | 41.02
312.6 K | 40.87
316.2 K | 40.67
319.33 K | 40.5
322.63 K | 40.39
326.13 K | 40.19
331.02 K | 39.94

CCCCCC[N+](CC)(CC)CC.O=S(=O)([N-]S(=O)(=O)C(F)(F)F)C(F)(F)F [triethylhexylammonium bis((trifluoromethyl)sulfonyl)imide]
Conditions | mass density [kg/m3] | surface tension liquid-gas [mN/m]
298.15 K | 1279.3 | –
299.54 K | – | 35.17
302.65 K | – | 34.9
303.15 K | 1275.4 | –
307.05 K | – | 34.45
308.15 K | 1271.9 | –
313.15 K | 1267.6 | –
313.73 K | – | 33.88
318.15 K | 1264.4 | –
319.84 K | – | 33.49
323.15 K | 1260.8 | –
324.94 K | – | 32.98
328.15 K | 1257.4 | –
329.34 K | – | 32.72
333.15 K | 1253 | –
335.04 K | – | 32.47
341.93 K | – | 31.98
347.11 K | – | 31.45

CCCCCCCCCCCCCC[P+](CCCC)(CCCC)CCCC.CCCCCCCCCCCCc1ccccc1S(=O)(=O)[O-] [tributyl(tetradecyl)phosphonium 2-dodecylbenzenesulfonate]
Conditions | mass density [kg/m3]
298.15 K | 938.4
303.15 K | 937.1
308.15 K | 933.7
313.15 K | 931.1
318.15 K | 928.4
323.15 K | 925.4
328.15 K | 922.8
333.15 K | 920.1

CCCC[P+](CC)(CCCC)CCCC.CCOP(=O)([O-])OCC [tributylethylphosphonium diethylphosphate]
Conditions | mass density [kg/m3] | surface tension liquid-gas [mN/m]
296.66 K | – | 33.6
298.15 K | 997.8 | –
302.18 K | – | 33.29
303.15 K | 995.7 | –
307.24 K | – | 33.14
308.15 K | 992.8 | –
312.34 K | – | 32.82
313.15 K | 989.7 | –
318.15 K | 985.8 | –
318.36 K | – | 32.24
323.15 K | 982.6 | –
323.59 K | – | 31.62
328.15 K | 979.5 | –
329.67 K | – | 31.14
333.15 K | 975.8 | –
336.36 K | – | 30.66
343.4 K | – | 30.15
347.75 K | – | 29.82
350.86 K | – | 29.59

CCCCCC[n+]1ccn(C)c1.O=S(=O)([N-]S(=O)(=O)C(F)(F)F)C(F)(F)F
Conditions | surface tension liquid-gas [mN/m]
297.22 K | 35.98
301.22 K | 35.79
305.48 K | 35.54
309.14 K | 35.35
312.48 K | 35.15
316.28 K | 35.03
319.87 K | 34.84
323.57 K | 34.63
327.48 K | 34.45
331.24 K | 34.26
334.91 K | 34.07
340.92 K | 33.76
346.42 K | 33.44

CCCCn1cc[n+](C)c1.F[P-](F)(F)(F)(F)F [1-butyl-3-methylimidazolium hexafluorophosphate]
Conditions | surface tension liquid-gas [mN/m]
298.15 K | 47.92
301.32 K | 47.71
305.79 K | 47.48
309.6 K | 47.29
315.44 K | 46.92
319.95 K | 46.55
325.06 K | 46.15
328.68 K | 46.04
332.22 K | 45.81
335.61 K | 45.41

CCCCCCCCCC[N+](C)(C)C.O=S(=O)([N-]S(=O)(=O)C(F)(F)F)C(F)(F)F
Conditions | mass density [kg/m3] | surface tension liquid-gas [mN/m]
298.15 K | 1226.3 | –
300.96 K | – | 35.42
302.95 K | – | 35.12
303.15 K | 1222.2 | –
307.75 K | – | 34.81
308.15 K | 1218.6 | –
312.28 K | – | 34.55
313.15 K | 1214.7 | –
318.08 K | – | 34.2
318.15 K | 1210.6 | –
323.15 K | 1206.3 | –
324.03 K | – | 33.71
328.15 K | 1204.7 | –
330.53 K | – | 33.36
333.15 K | 1200.3 | –
337.12 K | – | 32.82
342.53 K | – | 32.51
347.26 K | – | 32.23

CCCCCCCCCCCCCC[P+](CCCCCC)(CCCCCC)CCCCCC.N#C[N-]C#N [tetradecyl(trihexyl)phosphonium dicyanamide]
Conditions | mass density [kg/m3] | surface tension liquid-gas [mN/m]
295.06 K | – | 35.22
298.15 K | 920.9 | –
299.35 K | – | 34.85
302.95 K | – | 34.58
303.15 K | 917.3 | –
305.04 K | – | 34.45
308.15 K | 916.3 | –
310.4 K | – | 34.06
313.15 K | 913.1 | –
314.39 K | – | 33.8
318.15 K | 910.1 | –
318.38 K | – | 33.5
322.47 K | – | 33.24
323.15 K | 907.5 | –
326.14 K | – | 32.94
327.42 K | – | 32.61
328.15 K | 905 | –
333.02 K | – | 32.2
333.15 K | 902.4 | –
338.6 K | – | 31.66
343.13 K | – | 31.33
348.47 K | – | 31.09

CCCCCCCC[N+](C)(CCCCCCCC)CCCCCCCC.O=S(=O)([N-]S(=O)(=O)C(F)(F)F)C(F)(F)F
Conditions | mass density [kg/m3] | surface tension liquid-gas [mN/m]
298.15 K | 1082.3 | –
299.46 K | – | 29.06
303.15 K | 1080.3 | –
303.25 K | – | 28.93
308.15 K | 1077.3 | –
310.18 K | – | 28.53
313.15 K | 1073.8 | –
313.77 K | – | 28.23
318.15 K | 1073.8 | –
318.67 K | – | 27.85
321 K | – | 27.63
323.15 K | 1067.2 | –
326.3 K | – | 27.18
328.15 K | 1063.9 | –
329.6 K | – | 27.01
333.15 K | 1061.1 | –
336.79 K | – | 26.69

CCCCCC[N+](C)(C)CCC.O=S(=O)([N-]S(=O)(=O)C(F)(F)F)C(F)(F)F
Conditions | mass density [kg/m3] | surface tension liquid-gas [mN/m]
298.15 K | 1284.6 | –
300.1 K | – | 36.74
302 K | – | 36.58
303.1 K | – | 36.49
303.15 K | 1281.6 | –
304 K | – | 36.42
306 K | – | 36.25
308.1 K | – | 36.11
308.15 K | 1277.5 | –
312.3 K | – | 35.78
313.15 K | 1273.2 | –
315.2 K | – | 35.55
318 K | – | 35.33
318.15 K | 1269.9 | –
320.6 K | – | 35.14
322.6 K | – | 35.01
323.15 K | 1266 | –
328.15 K | 1266 | –
333.15 K | 1258.5 | –

CCCCCCCCCCCCCC[P+](CCCCCC)(CCCCCC)CCCCCC.[Cl-] [trihexyl(tetradecyl)phosphonium chloride]
Conditions | mass density [kg/m3] | surface tension liquid-gas [mN/m]
297.99 K | – | 33.62
298.15 K | 882.6 | –
302.94 K | – | 33.15
303.15 K | 880.1 | –
307.4 K | – | 32.72
308.15 K | 877.9 | –
312.09 K | – | 32.3
313.15 K | 875.4 | –
315.84 K | – | 32.01
318.15 K | 873.1 | –
319.49 K | – | 31.74
323.15 K | 869.4 | –
323.95 K | – | 31.43
327.96 K | – | 31.15
328.15 K | 866.9 | –
332.81 K | – | 30.76
333.15 K | 864.4 | –
337.27 K | – | 30.42
342.09 K | – | 30
347.68 K | – | 29.55

CCCCCC[N+](C)(C)C.O=S(=O)([N-]S(=O)(=O)C(F)(F)F)C(F)(F)F [hexyltrimethylammonium bis[(trifluoromethyl)sulfonyl]imide]
Conditions | mass density [kg/m3] | surface tension liquid-gas [mN/m]
298.15 K | 1310.6 | –
300.35 K | – | 35.88
302.35 K | – | 35.71
303.15 K | 1307.8 | –
304.25 K | – | 35.57
307.65 K | – | 35.32
308.15 K | 1304 | –
311.05 K | – | 35.09
313.15 K | 1299.5 | –
314.75 K | – | 34.86
318.15 K | 1295.7 | 34.64
322.55 K | – | 34.36
323.15 K | 1292.1 | –
326.25 K | – | 34.14
328.15 K | 1287.9 | –
331.35 K | – | 33.86
333.15 K | 1283.9 | –
333.35 K | – | 33.77

CCn1cc[n+](C)c1.O=S(=O)([O-])C(F)(F)F [1-ethyl-3-methylimidazolium trifluoromethanesulfonate]
Conditions | surface tension liquid-gas [mN/m]
296.28 K | 44.46
300.79 K | 44.36
304.95 K | 44.2
308.14 K | 44.07
312.41 K | 43.9
317.15 K | 43.81
321.93 K | 43.64
328.68 K | 43.37
333.64 K | 43.15
337.82 K | 42.99
343.49 K | 42.82
347.91 K | 42.62
353.56 K | 42.49

CCCCCCCCCCCCCC[P+](CCCCCC)(CCCCCC)CCCCCC.O=S(=O)([N-]S(=O)(=O)C(F)(F)F)C(F)(F)F
Conditions | mass density [kg/m3] | surface tension liquid-gas [mN/m]
298.15 K | 1050.1 | –
298.2 K | – | 33.08
303 K | – | 32.57
303.15 K | 1048.3 | –
308 K | – | 32.15
308.15 K | 1045.2 | –
313 K | – | 31.77
313.15 K | 1042 | –
318 K | – | 31.4
318.15 K | 1039.2 | –
323.15 K | 1035.6 | –
323.3 K | – | 31.09
327.9 K | – | 30.65
328.15 K | 1032.9 | –
332.9 K | – | 30.28
333.15 K | 1029.6 | –
338.9 K | – | 29.68
344.2 K | – | 29.45
349.8 K | – | 28.93

CCCC[N+](C)(C)C.O=S(=O)([N-]S(=O)(=O)C(F)(F)F)C(F)(F)F [butyltrimethylammonium bis(trifluoromethylsulfonyl)imide]
Conditions | mass density [kg/m3] | surface tension liquid-gas [mN/m]
298.15 K | 1374.7 | –
298.35 K | – | 38.05
302.33 K | – | 37.9
303.15 K | 1368.6 | –
306.15 K | – | 37.8
308.15 K | 1365.6 | –
309.93 K | – | 37.69
313.15 K | 1361.4 | –
314.79 K | – | 37.48
318.15 K | 1357.3 | –
320.39 K | – | 37.28
323.15 K | 1353.7 | –
326.4 K | – | 37.09
328.15 K | 1349.7 | –
330.16 K | – | 36.91
333.15 K | 1343.9 | –
335.64 K | – | 36.68
340.58 K | – | 36.5

— the NIST ThermoML archive (doi:10.1021/je7003098)
